Measured values from patent publication US8461328B2, “Tricyclic heterocyclic compounds, compositions and methods of use thereof” (Genentech, Inc., priority 2010, dated 2013).

Legend:
Assay type in all cases: biochemical
JAK2 = molecular target: T1, JAK2 (Homo sapiens, UniProt O60674); experiment: JAK2 inhibition (Table 4); conditions: read-out: JAK2 Ki
T1 construct: made in house; host or cells: SF9 insect cells (baculovirus)

JAK3 = molecular target: T2, JAK3 (Homo sapiens, UniProt P52333); experiment: JAK3 inhibition (Table 4); conditions: read-out: JAK3 Ki
T2 construct: made in house; host or cells: SF9 insect cells (baculovirus)

JAK1 = molecular target: T3, JAK1 (Homo sapiens, UniProt P23458); experiment: JAK1 inhibition (Table 4); conditions: read-out: JAK1 Ki
T3 construct: made in house; host or cells: SF9 insect cells (baculovirus)

TYK2 = molecular target: T4, TYK2 (Homo sapiens, UniProt P29597); experiment: TYK2 inhibition (Table 4)
T4 construct: made in house; host or cells: SF9 insect cells (baculovirus)
T4 sequence (P29597 873-1187): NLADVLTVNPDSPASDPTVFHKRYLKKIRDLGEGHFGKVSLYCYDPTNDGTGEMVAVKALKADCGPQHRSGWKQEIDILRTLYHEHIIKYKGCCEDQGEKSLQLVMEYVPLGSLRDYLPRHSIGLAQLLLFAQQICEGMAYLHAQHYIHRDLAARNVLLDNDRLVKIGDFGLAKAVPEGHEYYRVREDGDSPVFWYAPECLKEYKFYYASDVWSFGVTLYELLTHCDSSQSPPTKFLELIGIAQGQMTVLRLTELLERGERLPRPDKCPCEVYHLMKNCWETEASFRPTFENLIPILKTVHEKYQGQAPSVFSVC

T2 sequence (P52333 783-1124): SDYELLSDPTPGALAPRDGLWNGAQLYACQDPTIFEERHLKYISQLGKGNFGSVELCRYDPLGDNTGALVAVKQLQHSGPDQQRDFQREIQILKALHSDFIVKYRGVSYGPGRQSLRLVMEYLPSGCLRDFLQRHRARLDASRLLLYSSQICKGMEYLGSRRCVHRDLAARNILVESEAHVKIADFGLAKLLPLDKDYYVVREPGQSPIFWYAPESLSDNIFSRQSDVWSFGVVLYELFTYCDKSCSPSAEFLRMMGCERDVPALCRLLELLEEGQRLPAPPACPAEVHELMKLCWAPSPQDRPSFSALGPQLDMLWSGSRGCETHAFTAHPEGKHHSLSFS
T3 sequence (P23458 852-1154): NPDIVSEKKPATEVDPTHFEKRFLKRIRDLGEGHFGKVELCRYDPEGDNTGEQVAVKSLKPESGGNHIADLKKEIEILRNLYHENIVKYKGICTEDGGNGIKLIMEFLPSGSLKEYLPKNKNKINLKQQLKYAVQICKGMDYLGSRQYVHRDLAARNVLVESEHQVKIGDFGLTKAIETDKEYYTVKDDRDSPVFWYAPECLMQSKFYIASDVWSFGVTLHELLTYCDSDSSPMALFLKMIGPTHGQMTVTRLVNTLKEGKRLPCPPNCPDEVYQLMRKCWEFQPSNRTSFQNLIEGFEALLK
T1 sequence (O60674 812-1132): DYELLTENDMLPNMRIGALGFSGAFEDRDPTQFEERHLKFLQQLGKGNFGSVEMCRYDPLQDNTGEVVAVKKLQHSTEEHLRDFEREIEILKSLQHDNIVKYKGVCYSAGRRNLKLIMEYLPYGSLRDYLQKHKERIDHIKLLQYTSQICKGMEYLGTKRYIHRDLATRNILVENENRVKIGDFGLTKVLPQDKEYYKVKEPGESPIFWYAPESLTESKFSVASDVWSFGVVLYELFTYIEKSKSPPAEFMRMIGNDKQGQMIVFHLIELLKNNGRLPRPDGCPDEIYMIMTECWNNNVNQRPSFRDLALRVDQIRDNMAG

With `O=CN1CCC(n2cnc3cnc4[nH]ccc4c32)C(F)(F)C1` (stereo not drawn) [Example 180, 3,3-Difluoro-4-(6H-1,2,3,5,6-tetraaza-as-indacen-1-yl)-piperidine-1-carbaldehyde] as the compound, how does the Ki (JAK2) read?
Its Ki is 19.9 nM.

And the Ki (JAK3)?
Its Ki is 101 nM.

What about the Ki (JAK1) of the same compound?
Its Ki is 5.55 nM.

What about the Ki (TYK2) of the same compound?
Its Ki is 63.2 nM.

`Cc1nc2cnc3[nH]ccc3c2n1[C@H]1CC[C@@H](NCC(F)(F)F)C1` [Example 719, [(1R,3S)-3-(2-Methyl-6H-1,3,5,6-tetraaza-as-indacen-1-yl)-cyclopentyl]-(2,2,2-trifluoro-ethyl)-amine] was tested. Which Ki (JAK2) did it give?
Its Ki is 23.2 nM.

What about the Ki (JAK3) of the same compound?
The Ki was 22 nM.

What about the Ki (JAK1) of the same compound?
Its Ki is 4.07 nM.

And the Ki (TYK2)?
Its Ki is 30.4 nM.

What does the source list for `COCCC(=O)NCCc1nc2cnc3[nH]ccc3c2n1C1CCN(CCC#N)CC1` [Example 371, N-(2-{1-[1-(2-Cyano-ethyl)-piperidin-4-yl]-1,6-dihydro-1,3,5,6-tetraaza-as-indacen-2-yl}-ethyl)-3-methoxy-propionamide]?
Ki (JAK2): 35.5 nM; Ki (JAK3): 48.5 nM; Ki (JAK1): 4.82 nM; Ki (TYK2): 178 nM

Which Ki (JAK2) does the source give for `c1cncc(Cc2nc3cnc4[nH]ccc4c3n2C2CCOCC2)c1` [Example 469, 2-Pyridin-3-ylmethyl-1-(tetrahydro-pyran-4-yl)-1,6-dihydro-1,3,5,6-tetraaza-as-indacene] here?
The Ki was 1450 nM.

And the Ki (JAK3)?
The Ki was 475 nM.

What about the Ki (JAK1) of the same compound?
The Ki was 215 nM.

What about the Ki (TYK2) of the same compound?
Its Ki is 1770 nM.

With `CC(CC#N)N1CCC(n2c(CCn3cncn3)nc3cnc4[nH]ccc4c32)CC1` (racemic) [Example 394, 3-{4-[2-(2-[1,2,4]Triazol-1-yl-ethyl)-6H-1,3,5,6-tetraaza-as-indacen-1-yl]-piperidin-1-yl}-butyronitrile] as the compound, how does the Ki (JAK2) read?
The Ki was 37.9 nM.

What about the Ki (JAK3) of the same compound?
Its Ki is 152 nM.

And the Ki (JAK1)?
Its Ki is 18.3 nM.

What about the Ki (TYK2) of the same compound?
The Ki was 170 nM.

`CC(F)CN1CCC(n2c([C@@H](C)O)nc3cnc4[nH]ccc4c32)CC1` (stereo partly drawn) [Example 697, (R)-1-{1-[1-(2-Fluoro-propyl)-piperidin-4-yl]-1,6-dihydro-1,2,3,5,6-tetraaza-as-indacen-2-yl}-ethanol] was tested. Which Ki (JAK2) did it give?
The Ki was 64.8 nM.

What about the Ki (JAK3) of the same compound?
Its Ki is 36.1 nM.

And the Ki (JAK1)?
Its Ki is 3.1 nM.

And the Ki (TYK2)?
Its Ki is 32.5 nM.

Which Ki (JAK2) does the source give for `CC(C)(C)OC(=O)N1CCC(n2cnc3cnc4[nH]ccc4c32)CC1` [Example 124, 4-(6H-1,2,3,5,6-Tetraaza-as-indacen-1-yl)-piperidine-1-carboxylic acid tert-butyl ester] here?
The Ki was 33.2 nM.

What about the Ki (JAK3) of the same compound?
Its Ki is 845 nM.

What about the Ki (JAK1) of the same compound?
The Ki was 24.5 nM.

What about the Ki (TYK2) of the same compound?
Its Ki is 225 nM.

`C[C@@H](O)c1nc2cnc3[nH]ccc3c2n1[C@H]1CCCOC1` [Example 199, (R)-1-[(S)-1-(Tetrahydro-pyran-3-yl)-1,6-dihydro-1,2,3,5,6-tetraaza-as-indacen-2-yl]-ethanol] was tested. Which Ki (JAK2) did it give?
Its Ki is 67.5 nM.

And the Ki (JAK3)?
The Ki was 110 nM.

What about the Ki (JAK1) of the same compound?
The Ki was 2.49 nM.

What about the Ki (TYK2) of the same compound?
The Ki was 27.6 nM.

Which results are given for `Cn1nccc1C(=O)N1CCC(n2cnc3cnc4[nH]ccc4c32)CC1` [Example 84, (2-Methyl-2H-pyrazol-3-yl)-[4-(6H-1,3,5,6-tetraaza-as-indacen-1-yl)-piperidin-1-yl]methanone]?
Ki (JAK2): 36.1 nM; Ki (JAK3): 747 nM; Ki (JAK1): 11.6 nM; Ki (TYK2): 160 nM

How did the Ki (JAK2) turn out when `CC(C)NC(=O)Cc1nc2cnc3[nH]ccc3c2n1C1CCNCC1` [Example 261, N-Isopropyl-2-(1-piperidin-4-yl-1,6-dihydro-1,3,5,6-tetraaza-as-indacen-2-yl)-acetamide] was run?
Its Ki is 426 nM.

And the Ki (JAK3)?
The Ki was 108 nM.

What about the Ki (JAK1) of the same compound?
Its Ki is 39 nM.

What about the Ki (TYK2) of the same compound?
Its Ki is 678 nM.

`Cc1cc(Cc2nc3cnc4[nH]ccc4c3n2C2CCOCC2)on1` [Example 472, 2-(3-Methyl-isoxazol-5-ylmethyl)-1-(tetrahydro-pyran-4-yl)-1,6-dihydro-1,3,5,6-tetraaza-as-indacene] was tested. Which Ki (JAK2) did it give?
Its Ki is 694 nM.

And the Ki (JAK3)?
Its Ki is 405 nM.

And the Ki (JAK1)?
Its Ki is 57.3 nM.

What about the Ki (TYK2) of the same compound?
The Ki was 389 nM.

Which results are given for `N#CCCN1CCC(n2c(CC3CCCC3)nc3cnc4[nH]ccc4c32)CC1` [Example 116, 3-[4-(2-Cyclopentylmethyl-6H-1,2,3,5,6-tetraaza-as-indacen-1-yl)-piperidin-1-yl]-propionitrile]?
Ki (JAK2): 76.9 nM; Ki (JAK3): 58 nM; Ki (JAK1): 19.7 nM; Ki (TYK2): 322 nM
